One assay concerns the target T1, M5 muscarinic receptor (Homo sapiens, UniProt P08912).
T1 construct: gene CHRM5; expressed in CHO cells, membranes; species printed only for M2 and M3
T1 sequence (P08912 1-532): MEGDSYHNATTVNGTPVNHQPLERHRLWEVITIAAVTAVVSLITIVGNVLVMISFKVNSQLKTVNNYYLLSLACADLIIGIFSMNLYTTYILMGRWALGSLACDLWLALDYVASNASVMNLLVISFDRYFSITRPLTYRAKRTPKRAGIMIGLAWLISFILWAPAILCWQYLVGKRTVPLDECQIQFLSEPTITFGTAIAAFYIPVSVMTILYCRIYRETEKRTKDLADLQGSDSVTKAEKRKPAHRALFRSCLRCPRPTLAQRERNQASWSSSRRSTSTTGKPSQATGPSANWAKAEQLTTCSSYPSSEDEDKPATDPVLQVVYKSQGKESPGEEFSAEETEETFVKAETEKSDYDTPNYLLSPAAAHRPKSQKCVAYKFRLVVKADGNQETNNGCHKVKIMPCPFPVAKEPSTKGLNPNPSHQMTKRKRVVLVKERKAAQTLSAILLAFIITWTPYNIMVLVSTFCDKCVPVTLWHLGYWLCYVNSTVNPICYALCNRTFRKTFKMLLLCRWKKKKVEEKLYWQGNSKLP
The assay is described as follows: slowing of [3H]NMS dissociation by cold NMS, CHO membranes. Format: binding. The note with it: second site; allosteric; apparent affinity for the receptor-[3H]NMS complex; slope factor nH fitted; pH […] °C, […] NaCl, […] MgCl2.

Assay [1] has as its target T2, M2 muscarinic receptor (M2 wt) (Homo sapiens, UniProt P08172).
T2 construct: gene CHRM2
T2 sequence (P08172 1-466): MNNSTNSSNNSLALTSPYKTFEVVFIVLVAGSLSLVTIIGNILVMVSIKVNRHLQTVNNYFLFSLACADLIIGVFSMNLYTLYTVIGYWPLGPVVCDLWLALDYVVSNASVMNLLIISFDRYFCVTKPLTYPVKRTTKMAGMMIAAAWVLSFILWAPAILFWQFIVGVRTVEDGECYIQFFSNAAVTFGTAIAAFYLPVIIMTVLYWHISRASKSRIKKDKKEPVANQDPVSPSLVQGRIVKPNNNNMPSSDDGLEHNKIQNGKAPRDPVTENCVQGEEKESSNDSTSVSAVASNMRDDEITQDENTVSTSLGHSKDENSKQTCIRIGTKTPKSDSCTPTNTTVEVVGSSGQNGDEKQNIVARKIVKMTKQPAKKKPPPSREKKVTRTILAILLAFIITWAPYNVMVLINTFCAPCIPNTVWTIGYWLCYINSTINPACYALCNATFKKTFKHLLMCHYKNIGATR
Described as above. As to conditions: second site; allosteric; apparent affinity for the receptor-[3H]NMS complex; slope factor nH fitted; pH […] °C, […] NaCl, […] MgCl2. Type of assay: binding.
Description: slowing of [3H]NMS dissociation by cold NMS, CHO membranes on M2 muscarinic receptor (M2 wt)

Description for M5 muscarinic receptor: slowing of [3H]NMS dissociation by cold NMS, CHO membranes on M5 muscarinic receptor

As for `C[N+]1(C)[C@@H]2C[C@@H](OC(=O)[C@H](CO)c3ccccc3)C[C@H]1[C@@H]1O[C@@H]12` [N-methylscopolamine], the “NMS / pKA” value worked out at 3.86 ± 0.03 negative logarithm on M5 muscarinic receptor and 3.62 ± 0.03 negative logarithm in assay [1].
